System: NCI-H1876 complex spheroid growth, % test/control
Experiment: Anticancer human tumor NCI-H1876 cell line growth inhibition [Asc];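 note: compound exposure lasted 7 days starting three days after seeding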;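 for viability, T/C: 100% = DMSO vehicle control wells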
Settings: for IC50: curve of first compound; for viability, T/C: stronger effect = lower value
Method in brief: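 Stromal components (HUVEC and hMSC) are co-assembled with the cancer cells into multicellular spheroids. Drugs are then added singly or paired, at concentrations falling by half-log increments from a clinically achievable maximum, capped at 10 microM without known Cmax.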

## Cc1nc(N2CCC3(CC2)COC(C)C3N)c(CO)nc1Sc1ccnc(N)c1Cl (centres undefined) + CCN1C(C(=O)NC23CCC(C(=O)O)(CC2)CC3)C(c2cccc(Cl)c2F)C2(C(=O)Nc3cc(Cl)ccc32)C12CCCCC2
Second compound 0.00949 µM
  IC50: > 3 µM
Second compound 0.03 µM
  IC50: > 3 µM
Second compound 0.0949 µM
  IC50: > 3 µM
Second compound 0.3 µM
  IC50: > 3 µM
Second compound 0.949 µM
  IC50: > 3 µM
Second compound 3 µM
  IC50: > 3 µM
Second compound 0.00949 µM, first compound 0.00949 µM
  viability, T/C: 89.1%
Second compound 0.00949 µM, first compound 0.03 µM
  viability, T/C: 90%
Second compound 0.00949 µM, first compound 0.0949 µM
  viability, T/C: 92.1%
Second compound 0.00949 µM, first compound 0.3 µM
  viability, T/C: 102%
Second compound 0.00949 µM, first compound 0.949 µM
  viability, T/C: 91.6%
Second compound 0.00949 µM, first compound 3 µM
  viability, T/C: 77.5%
Second compound 0.03 µM, first compound 0.00949 µM
  viability, T/C: 99.6%
Second compound 0.03 µM, first compound 0.03 µM
  viability, T/C: 104%
Second compound 0.03 µM, first compound 0.0949 µM
  viability, T/C: 118%
Second compound 0.03 µM, first compound 0.3 µM
  viability, T/C: 93.5%
Second compound 0.03 µM, first compound 0.949 µM
  viability, T/C: 92.4%
Second compound 0.03 µM, first compound 3 µM
  viability, T/C: 80.2%
Second compound 0.0949 µM, first compound 0.00949 µM
  viability, T/C: 103%
Second compound 0.0949 µM, first compound 0.03 µM
  viability, T/C: 113%
Second compound 0.0949 µM, first compound 0.0949 µM
  viability, T/C: 94.3%
Second compound 0.0949 µM, first compound 0.3 µM
  viability, T/C: 92.4%
Second compound 0.0949 µM, first compound 0.949 µM
  viability, T/C: 93.9%
Second compound 0.0949 µM, first compound 3 µM
  viability, T/C: 87.3%
Second compound 0.3 µM, first compound 0.00949 µM
  viability, T/C: 109%
Second compound 0.3 µM, first compound 0.03 µM
  viability, T/C: 104%
Second compound 0.3 µM, first compound 0.0949 µM
  viability, T/C: 93.4%
Second compound 0.3 µM, first compound 0.3 µM
  viability, T/C: 99.5%
Second compound 0.3 µM, first compound 0.949 µM
  viability, T/C: 88.7%
Second compound 0.3 µM, first compound 3 µM
  viability, T/C: 88.7%
Second compound 0.949 µM, first compound 0.00949 µM
  viability, T/C: 108%
Second compound 0.949 µM, first compound 0.03 µM
  viability, T/C: 106%
Second compound 0.949 µM, first compound 0.0949 µM
  viability, T/C: 103%
Second compound 0.949 µM, first compound 0.3 µM
  viability, T/C: 109%
Second compound 0.949 µM, first compound 0.949 µM
  viability, T/C: 105%
Second compound 0.949 µM, first compound 3 µM
  viability, T/C: 87%
Second compound 3 µM, first compound 0.00949 µM
  viability, T/C: 108%
Second compound 3 µM, first compound 0.03 µM
  viability, T/C: 97.9%
Second compound 3 µM, first compound 0.0949 µM
  viability, T/C: 74%
Second compound 3 µM, first compound 0.3 µM
  viability, T/C: 90.3%
Second compound 3 µM, first compound 0.949 µM
  viability, T/C: 90.1%
Second compound 3 µM, first compound 3 µM
  viability, T/C: 67%

## O=C(c1cc(Cc2n[nH]c(=O)c3ccccc23)ccc1F)N1CCN(C(=O)C2CC2)CC1 + CNC(C)C(=O)NC1CN(S(=O)(=O)c2cccc(S(=O)(=O)N3CCC4CCC(C(=O)NC(c5ccccc5)c5ccccc5)N4C(=O)C(NC(=O)C(C)NC)C3)c2)CCC2CCC(C(=O)NC(c3ccccc3)c3ccccc3)N2C1=O
Second compound 0.00316 µM
  IC50: 4.73 µM
Second compound 0.01 µM
  IC50: > 10 µM
Second compound 0.0316 µM
  IC50: > 10 µM
Second compound 0.1 µM
  IC50: > 10 µM
Second compound 0.316 µM
  IC50: > 10 µM
Second compound 1 µM
  IC50: > 10 µM
Second compound 0.00316 µM, first compound 0.0316 µM
  viability, T/C: 67%
Second compound 0.00316 µM, first compound 0.1 µM
  viability, T/C: 61.7%
Second compound 0.00316 µM, first compound 0.316 µM
  viability, T/C: 65.1%
Second compound 0.00316 µM, first compound 1 µM
  viability, T/C: 66.5%
Second compound 0.00316 µM, first compound 3.16 µM
  viability, T/C: 60.6%
Second compound 0.00316 µM, first compound 10 µM
  viability, T/C: 29.6%
Second compound 0.01 µM, first compound 0.0316 µM
  viability, T/C: 96%
Second compound 0.01 µM, first compound 0.1 µM
  viability, T/C: 93%
Second compound 0.01 µM, first compound 0.316 µM
  viability, T/C: 105%
Second compound 0.01 µM, first compound 1 µM
  viability, T/C: 101%
Second compound 0.01 µM, first compound 3.16 µM
  viability, T/C: 96.5%
Second compound 0.01 µM, first compound 10 µM
  viability, T/C: 66.3%
Second compound 0.0316 µM, first compound 0.0316 µM
  viability, T/C: 98.5%
Second compound 0.0316 µM, first compound 0.1 µM
  viability, T/C: 93.7%
Second compound 0.0316 µM, first compound 0.316 µM
  viability, T/C: 92%
Second compound 0.0316 µM, first compound 1 µM
  viability, T/C: 99.9%
Second compound 0.0316 µM, first compound 3.16 µM
  viability, T/C: 97.8%
Second compound 0.0316 µM, first compound 10 µM
  viability, T/C: 69.8%
Second compound 0.1 µM, first compound 0.0316 µM
  viability, T/C: 89.5%
Second compound 0.1 µM, first compound 0.1 µM
  viability, T/C: 97.6%
Second compound 0.1 µM, first compound 0.316 µM
  viability, T/C: 103%
Second compound 0.1 µM, first compound 1 µM
  viability, T/C: 105%
Second compound 0.1 µM, first compound 3.16 µM
  viability, T/C: 95.6%
Second compound 0.1 µM, first compound 10 µM
  viability, T/C: 62.4%
Second compound 0.316 µM, first compound 0.0316 µM
  viability, T/C: 94.2%
Second compound 0.316 µM, first compound 0.1 µM
  viability, T/C: 99.9%
Second compound 0.316 µM, first compound 0.316 µM
  viability, T/C: 116%
Second compound 0.316 µM, first compound 1 µM
  viability, T/C: 111%
Second compound 0.316 µM, first compound 3.16 µM
  viability, T/C: 104%
Second compound 0.316 µM, first compound 10 µM
  viability, T/C: 66.7%
Second compound 1 µM, first compound 0.0316 µM
  viability, T/C: 101%
Second compound 1 µM, first compound 0.1 µM
  viability, T/C: 91.2%
Second compound 1 µM, first compound 0.316 µM
  viability, T/C: 97%
Second compound 1 µM, first compound 1 µM
  viability, T/C: 104%
Second compound 1 µM, first compound 3.16 µM
  viability, T/C: 101%
Second compound 1 µM, first compound 10 µM
  viability, T/C: 56.6%
